Results as given in ChEMBL document CHEMBL1201862, “PubChem BioAssay data set” (2004).
Where “and” joins values, the source holds several entries; their conditions need not be identical. Equal values may be shown once.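 Exposure lasted 48 hours, with cells grown in 96-well plates and compounds tested at five concentrations. The concentration for 50% growth inhibition is given as GI50.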 Calls of active or inactive are those of the source. Rule as the data show it: active = GI50 up to about 1.1 µM and inactive = higher.

Experiments:
Assay in all cases: growth of human tumour cells (NCI), 48 h
A549 = tested on: A549
SK-OV-3 = tested on: SK-OV-3
SF-539 = tested on: SF-539
HCT-15 = tested on: HCT-15
OVCAR-8 = tested on: OVCAR-8
LOX IMVI = tested on: LOX IMVI
Malme-3M = tested on: Malme-3M
M14 = tested on: M14
K562 = tested on: K562
KM12 = tested on: KM12
HL-60 = tested on: HL-60
SK-MEL-5 = tested on: SK-MEL-5
SNB-75 = tested on: SNB-75
UACC-257 = tested on: UACC-257
A498 = tested on: A498
RXF 393 = tested on: RXF 393
OVCAR-5 = tested on: OVCAR-5
CCRF-CEM = tested on: CCRF-CEM
RPMI-8226 = tested on: RPMI-8226

Compound	GI50 (A549)	GI50 (SK-OV-3)	GI50 (SF-539)	GI50 (HCT-15) [µM]	GI50 (OVCAR-8)	GI50 (LOX IMVI)	GI50 (Malme-3M)	GI50 (M14)	GI50 (K562)	GI50 (KM12)	GI50 (HL-60)	GI50 (SK-MEL-5)	GI50 (SNB-75)	GI50 (UACC-257)	GI50 (A498)	GI50 (RXF 393)	GI50 (OVCAR-5)	GI50 (CCRF-CEM)	GI50 (RPMI-8226)
COc1cccc(/C=N/NC(=O)CN(C)C)c1O	> 100 µM (inactive)	> 100 µM (inactive)	> 100 µM (inactive)	> 100	> 100 µM (inactive)	> 100 µM (inactive)	> 100 µM (inactive)	> 100 µM (inactive)	> 100 µM (inactive)	> 100 µM (inactive)	> 100 µM (inactive)	> 100 µM (inactive)	< 0.01 µM (active)	> 100 µM (inactive)	> 100 µM (inactive)	> 100 µM (inactive)	> 100 µM (inactive)	> 100 µM (inactive)	–
CC(=O)c1c(-c2cccc3ccccc23)c(C#N)c(=S)n(C2OC(CO)C(O)C(O)C2O)c1C (stereo unspecified)	> 100 µM (inactive)	> 100 µM (inactive)	–	> 100	> 100 µM (inactive)	> 100 µM (inactive)	–	–	43.9 µM (inactive) and 71.6 µM (inactive)	79.1 µM (inactive)	–	> 100 µM (inactive)	> 100 µM (inactive)	69 µM (inactive)	> 100 µM (inactive)	83.6 µM (inactive)	> 100 µM (inactive)	56 µM (inactive) and 51.4 µM (inactive)	53.2 µM (inactive)
CCOC(=O)Cc1csc2[n+]1C(=O)/C(=C/c1cccc(OC)c1O)S2	67.5 µM (inactive)	> 100 µM (inactive)	60.8 µM (inactive)	42.4	52.6 µM (inactive)	51.8 µM (inactive)	–	77.6 µM (inactive)	–	38.1 µM (inactive)	45.8 µM (inactive)	42.9 µM (inactive)	18.7 µM (inactive)	61.8 µM (inactive)	–	–	> 100 µM (inactive)	–	–
COc1ccc(OC(C(=O)O)C(C)C)c2c1CCCC2=O (stereo unspecified)	> 100 µM (inactive)	> 100 µM (inactive)	> 100 µM (inactive)	> 100	> 100 µM (inactive)	> 100 µM (inactive)	> 100 µM (inactive)	> 100 µM (inactive)	> 100 µM (inactive)	> 100 µM (inactive)	> 100 µM (inactive)	> 100 µM (inactive)	–	> 100 µM (inactive)	> 100 µM (inactive)	–	> 100 µM (inactive)	> 100 µM (inactive)	> 100 µM (inactive)
NC12CC3CC(C1)CC(Cl)(C3)C2	> 100 µM (inactive)	> 100 µM (inactive)	> 100 µM (inactive)	–	> 100 µM (inactive)	> 100 µM (inactive)	> 100 µM (inactive)	> 100 µM (inactive)	> 100 µM (inactive)	> 100 µM (inactive)	> 100 µM (inactive)	–	> 100 µM (inactive)	> 100 µM (inactive)	> 100 µM (inactive)	> 100 µM (inactive)	> 100 µM (inactive)	> 100 µM (inactive)	> 100 µM (inactive)
COc1cc2c3c(c4cc(OC)c(OC)cc4c2cc1OC)C(=O)C1CCC(=O)N1C3 (stereo unspecified)	–	14.2 µM (inactive)	10.9 µM (inactive)	31.6	27.2 µM (inactive)	24.9 µM (inactive)	8.75 µM (inactive)	–	14 µM (inactive)	70.1 µM (inactive)	41.3 µM (inactive)	34 µM (inactive)	11.6 µM (inactive)	41.9 µM (inactive)	14.9 µM (inactive)	14.8 µM (inactive)	–	6.64 µM (inactive)	2.02 µM (inactive)
CCOc1ccc(NC(=O)CC2SC(N)=NC2=O)cc1 (stereo unspecified)	> 100 µM (inactive)	–	–	–	> 100 µM (inactive)	> 100 µM (inactive)	> 100 µM (inactive)	> 100 µM (inactive)	–	> 100 µM (inactive)	> 100 µM (inactive)	> 100 µM (inactive)	> 100 µM (inactive)	> 100 µM (inactive)	–	> 100 µM (inactive)	> 100 µM (inactive)	> 100 µM (inactive)	> 100 µM (inactive)
COc1ccc(C2SCC(=O)N2NC(=O)c2ccc(NC(C)=O)cc2)c(OC)c1 (stereo unspecified)	> 100 µM (inactive)	> 100 µM (inactive)	> 100 µM (inactive)	> 100	> 100 µM (inactive)	–	–	69.8 µM (inactive)	> 100 µM (inactive)	> 100 µM (inactive)	> 100 µM (inactive)	> 100 µM (inactive)	> 100 µM (inactive)	> 100 µM (inactive)	> 100 µM (inactive)	> 100 µM (inactive)	> 100 µM (inactive)	–	> 100 µM (inactive)
O=C(NCCCCCCNCc1cccc2ccccc12)Nc1cccc2ccccc12	> 100 µM (inactive)	–	> 100 µM (inactive)	> 100	> 100 µM (inactive)	> 100 µM (inactive)	> 100 µM (inactive)	34.3 µM (inactive)	> 100 µM (inactive)	> 100 µM (inactive)	> 100 µM (inactive)	> 100 µM (inactive)	> 100 µM (inactive)	> 100 µM (inactive)	> 100 µM (inactive)	> 100 µM (inactive)	63.1 µM (inactive)	> 100 µM (inactive)	> 100 µM (inactive)
CC1=NOC(=O)C1/N=N/c1ccc(Br)c(C)c1 (stereo unspecified)	20.3 µM (inactive)	34.8 µM (inactive)	20.2 µM (inactive)	19.3	17.9 µM (inactive)	–	18.7 µM (inactive)	20.5 µM (inactive)	13 µM (inactive)	26.1 µM (inactive)	8.39 µM (inactive)	12.7 µM (inactive)	30.5 µM (inactive)	17.5 µM (inactive)	21.4 µM (inactive)	19.7 µM (inactive)	24.9 µM (inactive)	11.8 µM (inactive)	15.9 µM (inactive)
COc1ccc2c(c1)[n+]([O-])c(-c1c(Cl)cccc1Cl)c(N)[n+]2[O-]	45.2 µM (inactive)	> 100 µM (inactive)	–	31.8	61.7 µM (inactive)	66.1 µM (inactive)	21.3 µM (inactive)	31.5 µM (inactive)	53.6 µM (inactive)	87.3 µM (inactive)	36.8 µM (inactive)	22.9 µM (inactive)	> 100 µM (inactive)	23.4 µM (inactive)	> 100 µM (inactive)	–	> 100 µM (inactive)	57.7 µM (inactive)	80.4 µM (inactive)
CCOC(=O)C1=C(N)N(c2ccccc2)/C(=C(/C#N)c2nc3ccccc3[nH]2)S1	> 100 µM (inactive)	> 100 µM (inactive)	> 100 µM (inactive)	> 100	> 100 µM (inactive)	> 100 µM (inactive)	> 100 µM (inactive)	> 100 µM (inactive)	> 100 µM (inactive)	–	> 100 µM (inactive)	> 100 µM (inactive)	> 100 µM (inactive)	> 100 µM (inactive)	> 100 µM (inactive)	> 100 µM (inactive)	> 100 µM (inactive)	> 100 µM (inactive)	–
CC(=O)OC12c3ccccc3C1CCCC21OCCCO1 (stereo unspecified)	> 100 µM (inactive)	> 100 µM (inactive)	> 100 µM (inactive)	> 100	> 100 µM (inactive)	> 100 µM (inactive)	> 100 µM (inactive)	> 100 µM (inactive)	> 100 µM (inactive)	> 100 µM (inactive)	–	–	37.5 µM (inactive)	> 100 µM (inactive)	> 100 µM (inactive)	> 100 µM (inactive)	> 100 µM (inactive)	> 100 µM (inactive)	> 100 µM (inactive)
CN(Cc1ccccc1)C(=NC#N)N(C)Cc1ccccc1	> 100 µM (inactive)	> 100 µM (inactive)	> 100 µM (inactive)	> 100	> 100 µM (inactive)	> 100 µM (inactive)	–	> 100 µM (inactive)	–	> 100 µM (inactive)	–	> 100 µM (inactive)	–	> 100 µM (inactive)	–	–	–	–	–
CCOC(=O)C1=CC(C)(C(=O)OCC)Nc2c(nc(OC)[nH]c2=O)N1 (stereo unspecified)	> 10 µM (inactive)	> 10 µM (inactive)	> 10 µM (inactive)	> 10	> 10 µM (inactive)	> 10 µM (inactive)	> 10 µM (inactive)	> 10 µM (inactive)	> 10 µM (inactive)	> 10 µM (inactive)	–	> 10 µM (inactive)	> 10 µM (inactive)	> 10 µM (inactive)	> 10 µM (inactive)	> 10 µM (inactive)	> 10 µM (inactive)	> 10 µM (inactive)	> 10 µM (inactive)
CC(C)C[P+](c1ccccc1)(c1ccccc1)c1ccccc1	6.22 µM (inactive)	19.8 µM (inactive)	14.8 µM (inactive)	64.3	–	11.3 µM (inactive)	5.7 µM (inactive)	8.41 µM (inactive)	2.28 µM (inactive)	1.79 µM (inactive)	2.29 µM (inactive)	2.86 µM (inactive)	13.1 µM (inactive)	0.342 µM (active)	32.1 µM (inactive)	–	73.6 µM (inactive)	0.419 µM (active)	< 0.01 µM (active)
CN1Cc2c(nc(-c3ccccc3)c[n+]2[O-])N(C)C1	> 100 µM (inactive)	> 100 µM (inactive)	> 100 µM (inactive)	> 100	> 100 µM (inactive)	> 100 µM (inactive)	> 100 µM (inactive)	> 100 µM (inactive)	> 100 µM (inactive)	> 100 µM (inactive)	> 100 µM (inactive)	> 100 µM (inactive)	> 100 µM (inactive)	> 100 µM (inactive)	> 100 µM (inactive)	–	> 100 µM (inactive)	> 100 µM (inactive)	> 100 µM (inactive)
